Assay results published in PubChem BioAssay AID248 (DTP/NCI, 2004).
Several values for one entry are separate records, joined by “and”; a condition that tells them apart may be missing. Equal entries are not always repeated. Inconclusive results and toxic doses are left out. No stated cut-off is given here; in the data, active means T/C of 150% or more; inactive means T/C below 125%.

Tested on: L1210 leukemia ip in BDF1 mice, survival T/C
Assay: NCI In Vivo Anticancer Drug Screen. Data for tumor model L1210 Leukemia (intraperitoneal) in B6D2F1 (BDF1) mice
Conditions: endpoint: mean survival time, higher = longer survival
Summary of the method: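 Antitumor effect is assessed in tumor-bearing animals. Survival in the compound arm is compared with a vehicle-dosed control arm and expressed as their quotient.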

[1] = dose: 100.0 mg/kg/injection, schedule: Q01DX009 (ip), vehicle: Klucel (hydroxypropylcellulose) (HPC)
[2] = dose: 100.0 mg/kg/injection, schedule: Q04DX003 (ip), vehicle: Klucel (hydroxypropylcellulose) (HPC)
[3] = dose: 200.0 mg/kg/injection, schedule: Q01DX009 (ip), vehicle: Klucel (hydroxypropylcellulose) (HPC)
[4] = dose: 200.0 mg/kg/injection, schedule: Q04DX003 (ip), vehicle: Klucel (hydroxypropylcellulose) (HPC)
[5] = dose: 400.0 mg/kg/injection, schedule: Q01DX009 (ip), vehicle: Klucel (hydroxypropylcellulose) (HPC)
[6] = dose: 400.0 mg/kg/injection, schedule: Q04DX003 (ip), vehicle: Klucel (hydroxypropylcellulose) (HPC)
[7] = dose: 100.0 mg/kg/injection, schedule: Q04DX002 (ip), vehicle: Klucel (hydroxypropylcellulose) (HPC)
[8] = dose: 200.0 mg/kg/injection, schedule: Q04DX002 (ip), vehicle: Klucel (hydroxypropylcellulose) (HPC)
[9] = dose: 400.0 mg/kg/injection, schedule: Q04DX002 (ip), vehicle: Klucel (hydroxypropylcellulose) (HPC)
[10] = dose: 100.0 mg/kg/injection, schedule: Q01DX001 (ip), vehicle: carboxymethylcellulose (CMC)
[11] = dose: 200.0 mg/kg/injection, schedule: Q01DX001 (ip), vehicle: carboxymethylcellulose (CMC)
[12] = dose: 25.0 mg/kg/injection, schedule: Q01DX009 (ip), vehicle: Klucel (hydroxypropylcellulose) (HPC)
[13] = dose: 50.0 mg/kg/injection, schedule: Q01DX009 (ip), vehicle: Klucel (hydroxypropylcellulose) (HPC)
[14] = dose: 75.0 mg/kg/injection, schedule: Q01DX001 (ip), vehicle: saline
[15] = dose: 150.0 mg/kg/injection, schedule: Q01DX001 (ip), vehicle: saline
[16] = dose: 300.0 mg/kg/injection, schedule: Q01DX001 (ip), vehicle: saline
[17] = dose: 100.0 mg/kg/injection, schedule: Q01DX001 (ip), vehicle: saline
[18] = dose: 200.0 mg/kg/injection, schedule: Q01DX001 (ip), vehicle: saline
[19] = dose: 400.0 mg/kg/injection, schedule: Q01DX001 (ip), vehicle: saline

Measured: T/C

CCOC(=O)c1c(C)[nH]c(-c2ccccc2)c1C
inactive: [1] 109 % of control | [2] 102 % of control | [3] 97 % of control | [4] 100 % of control | [5] 95 % of control | [6] 94 % of control

Cc1cccc(C)c1OC(=O)Nc1ccccc1
inactive: [7] 101 % of control | [8] 97 % of control | [9] 101 % of control

CC(CO)(c1c[nH]c2ccccc12)c1c[nH]c2ccccc12
inactive: dose: 50.0 mg/kg/injection, schedule: Q01DX001 (ip), vehicle: carboxymethylcellulose (CMC) 102 % of control | [10] 96 % of control | [11] 96 % of control | dose: 400.0 mg/kg/injection, schedule: Q01DX001 (ip), vehicle: carboxymethylcellulose (CMC) 96 % of control

O=C(Nc1ccc(C(c2ccccc2)(c2ccccc2)c2ccccc2)cc1)C(Cl)Cl
inactive: [1] 91 % of control | [2] 96 % of control | [3] 97 % of control | [4] 95 % of control | [5] 97 % of control | [6] 94 % of control

NC(=S)N/N=C/c1ccc(Br)s1
inactive: [10] 87 % of control | [11] 100 % of control

COc1ccc(CCN2CSC(=S)N(CCc3ccc(OC)c(OC)c3)C2)cc1OC
inactive: [1] 97 % of control | [2] 97 % of control | [3] 100 % of control | [4] 97 % of control | [5] 94 % of control | [6] 95 % of control

N/C(Cc1ccc([N+](=O)[O-])cc1)=N\O
inactive: [12] 100 % of control | [13] 91 % of control | [1] 100 % of control

CC(C)C(C#N)(CCN1CCCCC1)c1cccc2ccccc12 (stereo unspecified)
inactive: [1] 92 % of control

CCOc1ccc(C(=N)N2CCN(C)CC2)c2ccccc12
inactive: dose: 4.2 mg/kg/injection, schedule: Q01DX Z (ip), vehicle: methylcellulose (MC) 104 % of control | dose: 6.3 mg/kg/injection, schedule: Q01DX Z (ip), vehicle: methylcellulose (MC) 103 % of control | dose: 9.5 mg/kg/injection, schedule: Q01DX Z (ip), vehicle: methylcellulose (MC) 97 % of control | dose: 14.3 mg/kg/injection, schedule: Q01DX Z (ip), vehicle: methylcellulose (MC) 106 % of control

C1=CC2CC1C1CC21 (stereo unspecified)
inactive: [14] 100 % of control | [15] 96 % of control | [16] 96 % of control

Oc1ccccc1C=Nc1ccccc1O.[Cu+2]
inactive: dose: 100.0 mg/kg/injection, schedule: Q01DX001 (ip), vehicle: other 107 % of control | dose: 200.0 mg/kg/injection, schedule: Q01DX001 (ip), vehicle: other 116 % of control

CCOC(=O)C(=CNc1cccc2ccncc12)C(=O)OCC
inactive: dose: 100.0 mg/kg/injection, schedule: Q04DX003 (ip), vehicle: saline with Tween-80 104 % of control | dose: 200.0 mg/kg/injection, schedule: Q04DX003 (ip), vehicle: saline with Tween-80 95 % of control | dose: 400.0 mg/kg/injection, schedule: Q04DX003 (ip), vehicle: saline with Tween-80 117 % of control

Cc1ccccc1SCC#CCSc1ccccc1C
inactive: dose: 100.0 mg/kg/injection, schedule: Q01DX001 (ip), vehicle: Klucel (hydroxypropylcellulose) (HPC) 93 % of control | dose: 200.0 mg/kg/injection, schedule: Q01DX001 (ip), vehicle: Klucel (hydroxypropylcellulose) (HPC) 95 % of control | dose: 400.0 mg/kg/injection, schedule: Q01DX001 (ip), vehicle: Klucel (hydroxypropylcellulose) (HPC) 106 % of control

NNC(=O)C1CCC1C(=O)NN (stereo unspecified)
inactive: [14] 103 % of control | dose: 75.0 mg/kg/injection, schedule: Q04DX003 (ip), vehicle: saline 96 % of control | [15] 99 % of control | dose: 150.0 mg/kg/injection, schedule: Q04DX003 (ip), vehicle: saline 103 % of control | [16] 97 % of control | dose: 300.0 mg/kg/injection, schedule: Q04DX003 (ip), vehicle: saline 103 % of control

c1ccc(Cc2ccccn2)nc1
inactive: dose: 100.0 mg/kg/injection, schedule: Q04DX003 (ip), vehicle: saline sonified 110 % of control | dose: 200.0 mg/kg/injection, schedule: Q04DX003 (ip), vehicle: saline sonified 104 % of control | dose: 400.0 mg/kg/injection, schedule: Q04DX003 (ip), vehicle: saline sonified 104 % of control

NC(=O)C(c1ccccc1)N1CCCCC1 (stereo unspecified)
inactive: [12] 87 % of control | dose: 25.0 mg/kg/injection, schedule: Q04DX003 (ip), vehicle: Klucel (hydroxypropylcellulose) (HPC) 96 % of control | [13] 96 % of control | dose: 50.0 mg/kg/injection, schedule: Q04DX003 (ip), vehicle: Klucel (hydroxypropylcellulose) (HPC) 100 % of control | [1] 97 % of control | [2] 92 % of control and 90 % of control

Nc1ccc(Nc2nc3ccccc3s2)c(O)c1
inactive: [14] 104 % of control | [15] 101 % of control | [16] 104 % of control

CC(C)C1=CC23CCC4C(C)(C(=O)O)CCCC4(C)C2CC1C1C(=O)c2ccccc2C(=O)C13 (stereo unspecified)
inactive: [17] 90 % of control | [18] 95 % of control | [19] 91 % of control

CC(=O)NC1CCC(C(C)(C)C)CC1 (stereo unspecified)
inactive: dose: 100.0 mg/kg/injection, schedule: Q01DX009 (ip), vehicle: saline with Tween-80 102 % of control | [7] 93 % of control | dose: 200.0 mg/kg/injection, schedule: Q01DX009 (ip), vehicle: saline with Tween-80 108 % of control | [8] 90 % of control | [9] 103 % of control

NC(N)=NC(N)=Nc1ccccc1CS
inactive: [14] 101 % of control | [15] 102 % of control

CC(=O)Nc1c(NN=C(C)C)[nH]c(=O)[nH]c1=O
inactive: dose: 50.0 mg/kg/injection, schedule: Q01DX001 (ip), vehicle: saline 98 % of control | [17] 96 % of control | [18] 102 % of control | [19] 98 % of control

CCCCCCCCCCCCCCCCCCNC(=S)NCCCCCCCCCCCCCCCC
inactive: dose: 55.0 mg/kg/injection, schedule: Q01DX Z (ip), vehicle: methylcellulose (MC) 123 % of control | dose: 83.0 mg/kg/injection, schedule: Q01DX Z (ip), vehicle: methylcellulose (MC) 106 % of control | dose: 125.0 mg/kg/injection, schedule: Q01DX Z (ip), vehicle: methylcellulose (MC) 104 % of control

CCC#CC(=O)CC
inactive: dose: 7.5 mg/kg/injection, schedule: Q04DX003 (ip), vehicle: saline 94 % of control | dose: 15.0 mg/kg/injection, schedule: Q04DX003 (ip), vehicle: saline 94 % of control | dose: 30.0 mg/kg/injection, schedule: Q04DX003 (ip), vehicle: saline 95 % of control

CC(C)NC(=O)c1cc(NC(=O)c2ccc(C(=O)Nc3cc(C(=O)NC(C)C)cc(C4=NCCN4)c3)cc2)cc(C2=NCCN2)c1
inactive: dose: 2.5 mg/kg/injection, schedule: Q01DX015 (ip), vehicle: water 89 % of control | dose: 5.0 mg/kg/injection, schedule: Q01DX015 (ip), vehicle: water 97 % of control | dose: 10.0 mg/kg/injection, schedule: Q01DX015 (ip), vehicle: water 92 % of control | dose: 18.75 mg/kg/injection, schedule: Q01DX015 (ip), vehicle: water 101 % of control | dose: 20.0 mg/kg/injection, schedule: Q01DX015 (ip), vehicle: water 95 % of control | dose: 37.5 mg/kg/injection, schedule: Q01DX015 (ip), vehicle: water 96 % of control

CCOC(=O)c1ccc(NCc2cnc(N)nc2N)cc1
inactive: [17] 97 % of control | [18] 90 % of control | [19] 90 % of control

C[P+](Cc1ccccc1)(c1ccccc1)c1ccccc1
inactive: dose: 1.25 mg/kg/injection, schedule: Q01DX001 (ip), vehicle: other 101 % of control | dose: 2.5 mg/kg/injection, schedule: Q01DX001 (ip), vehicle: other 94 % of control | dose: 5.0 mg/kg/injection, schedule: Q01DX001 (ip), vehicle: other 98 % of control

CCS(=O)(=O)/C=C/c1ccc2ccccc2n1
inactive: [7] 104 % of control | [8] 100 % of control

ClC1=C(Cl)C(Cl)(Cl)C(Cl)=C1Cl
inactive: dose: 0.25 mg/kg/injection, schedule: Q04DX002 (ip), vehicle: Klucel (hydroxypropylcellulose) (HPC) 103 % of control | dose: 0.5 mg/kg/injection, schedule: Q04DX002 (ip), vehicle: Klucel (hydroxypropylcellulose) (HPC) 107 % of control | dose: 1.0 mg/kg/injection, schedule: Q04DX002 (ip), vehicle: Klucel (hydroxypropylcellulose) (HPC) 88 % of control
